Data published in publication PMC11969009 (Nature Communications, 2025).
Values after ≈ are worked out from the molar mass of the structure shown. Values joined by “and” are separate entries in the source; they are usually repeats but may differ in a detail not shown here. Identical values can stand only once. “Also recorded” adds a separate entry of the source. Like-named read-outs stand apart in the source and are kept apart here.

Legend:
[1] = tested on: SARS-CoV-2 clinical isolate VIC001; type: cell-based
[2] = target: T1, CYP2C8 (Homo sapiens, UniProt P10632); details: 20 µM
T1 sequence (P10632 whole entry): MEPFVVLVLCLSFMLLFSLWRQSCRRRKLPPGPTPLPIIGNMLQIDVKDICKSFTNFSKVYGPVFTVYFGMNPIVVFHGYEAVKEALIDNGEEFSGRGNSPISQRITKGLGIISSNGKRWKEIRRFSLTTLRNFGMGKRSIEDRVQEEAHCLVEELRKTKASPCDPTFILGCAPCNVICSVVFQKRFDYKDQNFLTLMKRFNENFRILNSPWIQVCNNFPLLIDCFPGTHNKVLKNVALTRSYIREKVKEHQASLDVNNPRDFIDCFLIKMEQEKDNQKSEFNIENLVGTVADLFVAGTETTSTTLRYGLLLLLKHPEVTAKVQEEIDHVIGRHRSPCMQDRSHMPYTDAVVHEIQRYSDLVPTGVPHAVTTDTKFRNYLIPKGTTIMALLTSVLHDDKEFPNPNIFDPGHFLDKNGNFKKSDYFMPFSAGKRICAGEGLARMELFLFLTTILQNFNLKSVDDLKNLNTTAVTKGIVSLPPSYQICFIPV

[3] = target: T2, CYP2C19 (Homo sapiens, UniProt P33261)
T2 sequence (P33261 whole entry): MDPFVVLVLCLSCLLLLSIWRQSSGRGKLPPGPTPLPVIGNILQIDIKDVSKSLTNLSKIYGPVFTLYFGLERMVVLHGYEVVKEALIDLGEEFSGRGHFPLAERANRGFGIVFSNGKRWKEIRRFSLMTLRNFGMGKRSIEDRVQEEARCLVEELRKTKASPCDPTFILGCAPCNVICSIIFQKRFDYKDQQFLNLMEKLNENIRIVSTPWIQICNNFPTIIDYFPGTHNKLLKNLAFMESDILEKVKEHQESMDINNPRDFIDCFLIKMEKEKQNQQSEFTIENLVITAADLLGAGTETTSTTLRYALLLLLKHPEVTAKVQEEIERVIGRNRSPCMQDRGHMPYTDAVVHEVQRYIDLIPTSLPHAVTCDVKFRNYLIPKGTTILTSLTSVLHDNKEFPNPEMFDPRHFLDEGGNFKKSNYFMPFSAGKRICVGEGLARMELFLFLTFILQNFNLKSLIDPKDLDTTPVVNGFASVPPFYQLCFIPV

[4] = target: CYP2D6 (Homo sapiens, UniProt P10635); test: biochemical
Sequence of CYP2D6 (P10635 whole entry): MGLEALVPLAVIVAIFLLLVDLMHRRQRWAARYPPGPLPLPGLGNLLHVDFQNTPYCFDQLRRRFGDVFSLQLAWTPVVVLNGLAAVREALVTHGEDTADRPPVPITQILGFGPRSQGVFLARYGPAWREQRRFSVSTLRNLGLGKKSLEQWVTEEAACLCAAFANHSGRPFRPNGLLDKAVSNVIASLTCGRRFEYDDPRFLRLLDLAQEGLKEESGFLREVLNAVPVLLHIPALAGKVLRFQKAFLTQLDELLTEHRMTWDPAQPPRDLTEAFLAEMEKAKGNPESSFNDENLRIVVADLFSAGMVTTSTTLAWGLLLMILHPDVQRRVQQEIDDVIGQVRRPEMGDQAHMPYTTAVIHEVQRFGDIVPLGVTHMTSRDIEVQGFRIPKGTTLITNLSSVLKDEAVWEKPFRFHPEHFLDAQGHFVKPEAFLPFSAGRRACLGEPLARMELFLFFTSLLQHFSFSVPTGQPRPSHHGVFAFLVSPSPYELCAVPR

[5] = tested on: SARS-CoV-2 P21; parameters: species or system C57BL/6 (WT) mice; Macrophages: unit not given here; details: mouse, in vivo
[6] = tested on: CYP3A4/5; test: in vitro; details: human, microsomes
[7] = physchem; details: kinetic from dmso stock
[8] = tested on: CYP3A4/5; test: in vitro; details: human, microsomes; remark: listed apart in the source
[9] = target: hERG (Homo sapiens, UniProt Q12809); test: biochemical
Sequence of hERG (Q12809 whole entry): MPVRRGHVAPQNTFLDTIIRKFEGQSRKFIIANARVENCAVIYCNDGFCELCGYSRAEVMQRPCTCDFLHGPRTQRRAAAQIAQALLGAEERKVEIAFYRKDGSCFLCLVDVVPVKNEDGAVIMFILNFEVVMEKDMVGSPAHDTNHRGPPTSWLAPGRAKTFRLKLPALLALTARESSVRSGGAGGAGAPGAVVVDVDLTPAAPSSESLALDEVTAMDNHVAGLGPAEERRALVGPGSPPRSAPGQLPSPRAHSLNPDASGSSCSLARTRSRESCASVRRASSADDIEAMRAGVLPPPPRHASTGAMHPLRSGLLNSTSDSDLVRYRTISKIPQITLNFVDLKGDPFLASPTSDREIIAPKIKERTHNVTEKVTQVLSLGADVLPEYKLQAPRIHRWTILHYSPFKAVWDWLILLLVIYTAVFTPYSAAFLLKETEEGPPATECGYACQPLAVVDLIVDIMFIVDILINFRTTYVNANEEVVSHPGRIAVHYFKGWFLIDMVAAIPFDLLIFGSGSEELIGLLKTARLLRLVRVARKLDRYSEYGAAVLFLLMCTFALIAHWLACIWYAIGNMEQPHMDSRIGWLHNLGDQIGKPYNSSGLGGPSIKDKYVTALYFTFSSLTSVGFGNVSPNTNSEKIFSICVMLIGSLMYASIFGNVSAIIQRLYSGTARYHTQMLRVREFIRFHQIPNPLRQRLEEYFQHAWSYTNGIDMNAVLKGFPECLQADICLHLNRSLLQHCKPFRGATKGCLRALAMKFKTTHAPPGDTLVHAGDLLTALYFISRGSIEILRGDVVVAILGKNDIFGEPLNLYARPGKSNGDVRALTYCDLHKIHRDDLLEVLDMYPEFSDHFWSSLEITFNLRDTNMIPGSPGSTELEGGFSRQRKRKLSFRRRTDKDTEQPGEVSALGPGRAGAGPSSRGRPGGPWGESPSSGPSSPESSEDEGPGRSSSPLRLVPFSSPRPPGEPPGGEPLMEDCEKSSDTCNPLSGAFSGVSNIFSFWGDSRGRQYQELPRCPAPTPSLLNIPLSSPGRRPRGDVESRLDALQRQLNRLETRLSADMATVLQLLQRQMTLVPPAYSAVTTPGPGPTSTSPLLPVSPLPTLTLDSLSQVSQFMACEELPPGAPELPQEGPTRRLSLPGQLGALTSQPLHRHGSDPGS

[10] = in vitro; details: both, human, plasma, pH 7.4
[11] = tested on: SARS-CoV-2 P2 strain; parameters: species or system C57BL/6 (WT) mice; details: mouse, in vivo
[12] = target: T3, CYP1A2 (Homo sapiens, UniProt P05177); test: biochemical
T3 sequence (P05177 whole entry): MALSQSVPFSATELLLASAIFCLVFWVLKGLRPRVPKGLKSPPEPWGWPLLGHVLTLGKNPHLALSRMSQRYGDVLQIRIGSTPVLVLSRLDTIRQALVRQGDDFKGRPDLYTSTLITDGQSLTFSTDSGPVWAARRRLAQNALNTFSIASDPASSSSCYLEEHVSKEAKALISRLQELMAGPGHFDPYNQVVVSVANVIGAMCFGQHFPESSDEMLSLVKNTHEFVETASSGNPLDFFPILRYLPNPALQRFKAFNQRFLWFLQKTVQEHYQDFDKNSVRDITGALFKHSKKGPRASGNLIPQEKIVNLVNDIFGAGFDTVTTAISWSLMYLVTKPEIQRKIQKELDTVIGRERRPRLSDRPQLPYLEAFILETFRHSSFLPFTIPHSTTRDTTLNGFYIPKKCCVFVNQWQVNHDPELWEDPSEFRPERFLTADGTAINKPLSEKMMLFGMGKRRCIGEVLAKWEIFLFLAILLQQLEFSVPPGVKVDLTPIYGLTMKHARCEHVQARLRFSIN

[13] = target: T4, CYP2C9 (Homo sapiens, UniProt P11712); test: in vitro; details: microsomes, pH 7.4
T4 sequence (P11712 whole entry): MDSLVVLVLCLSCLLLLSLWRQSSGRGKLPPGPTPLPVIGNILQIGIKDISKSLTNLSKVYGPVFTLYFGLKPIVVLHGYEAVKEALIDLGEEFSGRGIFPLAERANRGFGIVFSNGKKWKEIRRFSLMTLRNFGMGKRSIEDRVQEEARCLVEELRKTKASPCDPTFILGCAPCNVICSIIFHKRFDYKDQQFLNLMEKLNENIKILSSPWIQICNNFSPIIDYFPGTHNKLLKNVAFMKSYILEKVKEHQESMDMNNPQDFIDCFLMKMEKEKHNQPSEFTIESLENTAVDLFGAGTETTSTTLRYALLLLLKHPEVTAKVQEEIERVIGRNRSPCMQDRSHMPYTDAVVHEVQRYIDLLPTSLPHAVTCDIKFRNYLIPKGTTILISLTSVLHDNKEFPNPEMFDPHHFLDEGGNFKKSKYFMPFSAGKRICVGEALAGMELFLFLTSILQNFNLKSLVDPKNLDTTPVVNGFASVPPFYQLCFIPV

[14] = in vitro; details: both, CD1, mouse, plasma, pH 7.4
[15] = target: T4, CYP2C9; test: biochemical
[16] = in vitro; details: human, microsomes, pH 7.4
[17] = tested on: SARS-CoV-2 P21; parameters: species or system C57BL/6 (WT) mice; details: mouse, in vivo
[18] = target: T5, CYP2B6 (Homo sapiens, UniProt P20813)
T5 sequence (P20813 whole entry): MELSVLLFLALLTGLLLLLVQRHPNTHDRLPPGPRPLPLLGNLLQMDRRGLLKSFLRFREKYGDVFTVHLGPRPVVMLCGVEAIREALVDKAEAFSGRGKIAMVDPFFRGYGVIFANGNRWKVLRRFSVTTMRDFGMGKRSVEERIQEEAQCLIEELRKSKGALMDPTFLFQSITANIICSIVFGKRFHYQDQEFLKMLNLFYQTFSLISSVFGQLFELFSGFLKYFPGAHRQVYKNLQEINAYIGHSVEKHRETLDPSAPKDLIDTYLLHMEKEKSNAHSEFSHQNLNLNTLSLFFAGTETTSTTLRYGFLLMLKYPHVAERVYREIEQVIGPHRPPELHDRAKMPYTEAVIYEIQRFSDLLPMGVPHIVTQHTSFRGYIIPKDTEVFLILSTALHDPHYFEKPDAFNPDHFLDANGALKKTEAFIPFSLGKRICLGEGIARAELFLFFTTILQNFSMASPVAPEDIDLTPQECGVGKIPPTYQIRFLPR

[19] = in vitro; details: mouse, microsomes, pH 7.4
[20] = target: T6, SARS-CoV-2 PLpro (Severe acute respiratory syndrome coronavirus 2, UniProt P0DTD1); test: cell-based; type: cell-based
[21] = target: T5, CYP2B6; test: biochemical
[22] = in vitro; details: mouse, hepatocytes, pH 7.4
[23] = target: T3, CYP1A2
[24] = tested on: SARS-CoV-2 P21; parameters: species or system C57BL/6 (WT) mice; details: mouse, in vivo; remark: listed apart in the source
[25] = target: T6, SARS-CoV-2 PLpro; test: biochemical; type: binding
[26] = in vitro; details: human, hepatocytes, pH 7.4
[27] = target: T6, SARS-CoV-2 PLpro; test: biochemical
[28] = physchem; details: pH 7.4
[29] = tested on: SARS-CoV-2 clinical isolate VIC001; test: microbe, parasite or virus in culture; type: cell-based
[30] = target: T2, CYP2C19; test: biochemical
[31] = target: T1, CYP2C8; test: biochemical
[32] = in vivo; details: male, C57BL/6, mouse, po, 100 mg/kg

SMILES: CCC(CC)COC(=O)[C@H](C)N[P@](=O)(OC[C@H]1O[C@@](C#N)(c2ccc3c(N)ncnn23)[C@H](O)[C@@H]1O)Oc1ccccc1 [Remdesivir, remdesivir]
- TCID50 [1]: 15.3

SMILES: CCON=C(c1ccc2cc(OC)ccc2c1)C1CCCN(C2CCC(O)CC2)C1 (stereo not drawn) [WEHI-P8]
- CYP2C8 % inhibition at 20 µM [2]: No measurable inhibition
- CYP2C19 % inhibition at 20 µM [3]: No measurable inhibition
- IC50 [4]: 13800 nM
- Log2 Fold change IL-10 [5]: -6.27
- Macrophages [5]: 10.22 and 12.4 and 14.7 and 14.8 and 13 and 14.2 and 15.1 and 11.5
- reduction of viral burdens, severe model [5]: more effective than PLT at reducing viral burdens
- weight loss, severe model [5]: rescuing mice from weight loss
- lung H&E histology, severe model ([5]; 100 mg/kg): only mild inflammation
- lung IHC immune cell subsets, severe model ([5]; 100 mg/kg): significantly reduce the numbers of macrophages and neutrophils
- lung cytokine and chemokine profiling, severe model ([5]; 100 mg/kg): significantly reduce the levels of a wider range of pro-inflammatory cytokines and chemokines
- efficacy of pre-infection regimen versus treatment after infection ([5]; 150 mg/kg): no more effective than initiating treatment after infection; also recorded: did not confer a significant benefit compared to post-infection treatment initiation
- lung H&E histology, severe model ([5]; 150 mg/kg): minimal to unremarkable histological changes
- lung IHC immune cell subsets, severe model ([5]; 150 mg/kg): also reduced the number of T cells
- inhibition at 20 µM ([6]; Time dependent CYP3A4/5 % inhibition at 20 µM): 25%
- IC50 ([6]; Time dependent CYP3A4/5 IC50 + NADPH): > 20000 nM
- IC50 ([6]; Time dependent CYP3A4/5 IC50 - NADPH): > 20000 nM
- solubility kinetic ([7]; pH 2, aqueous buffer): > 320 µM
- solubility kinetic ([7]; pH 6.5, aqueous buffer): 160 to 320 µM (≈ 65.7 to 131 µg/mL)
- inhibition at 20 µM ([8]; pH 7.4, CYP3A4/5 % inhibition at 20 µM): 28%
- IC50 ([8]; pH 7.4, CYP3A4/5 IC50): > 20000 nM
- IC50 [9]: 5390 nM
- fraction unbound [10]: 0.153
- antiviral activity (lung viral burden), mild model [11]: antiviral efficacy in inhibiting P2 virus replication, comparable to that observed with WEHI-P8; also recorded: cannot be further enhanced by concurrent ritonavir co-treatment
- antiviral efficacy (lung viral burden), mild model, treatment after infection ([11]; 150 mg/kg): did not change the antiviral efficacy
- IC50 [12]: > 20000 nM
- inhibition at 20 µM [13]: 26%
- fraction unbound [14]: 0.062
- IC50 [15]: > 20000 nM
- half-life [16]: 2.4 h
- microsomal CLint [16]: 9.7 µL/min/mg
- gut inflammation [17]: could not be rescued
- lung H&E pathology at 1 month, PASC model [17]: reduced signs of haemorrhage and immune cell infiltrates
- neuroinflammation, microglial activation (IBA-1) [17]: significantly reduced
- right ventricle area [17]: no significant differences between vehicle-treated or antiviral-treated groups
- infection-induced weight loss, PASC model ([17]; 150 mg/kg): effectively prevented infection-induced weight loss
- survival of acute phase, PASC model ([17]; 150 mg/kg): all treated animals survived the acute phase of infection
- CYP2B6 % inhibition at 20 µM [18]: No measurable inhibition
- half-life [19]: 0.692 h
- microsomal CLint [19]: 33.4 µL/min/mg
- EC50 [20]: 298 nM
- IC50 [21]: > 20000 nM
- half-life [22]: 1.38 h
- hepatocyte CLint [22]: 16.8 µL/min/1e6 cells
- CYP1A2 % inhibition at 20 µM [23]: No measurable inhibition
- NORT exploratory behaviour / preference for the novel object [24]: significantly higher preference for the novel object
- NORT impairment in females [24]: partially mitigated
- overall distance travelled, infected females [24]: rescued by WEHI-P8 treatment
- recognition index [24]: did not reveal significant sex- or drug dependent differences
- Recognition Index (females) ([24]; 150 mg/kg): 0.5 and 0.9 and 0.57 and 0.7
- Recognition Index (males) ([24]; 150 mg/kg): 0.8 and 0.529 and 0.7
- Kd [25]: 9 nM
- Response (RU), report points [25]: 23.2517 RU and 23.7185 RU and 25.1250 RU and 25.7597 RU and 25.8254 RU and 25.1414 RU
- half-life [26]: 2.32 h
- hepatocyte CLint [26]: 10 µL/min/1e6 cells
- inhibition at 0.545 µM ([27]; Conc 0.545 µM, read-out: SARS-CoV-2 PLpro, UbRh dose-response): 96.1%
- inhibition at 1.63 µM ([27]; Conc 1.63 µM, read-out: SARS-CoV-2 PLpro, UbRh dose-response): 97.9%
- inhibition at 4.9 µM ([27]; Conc 4.9 µM, read-out: SARS-CoV-2 PLpro, UbRh dose-response): 100%
- IC50 ([27]; IC50 (UbRh) SARS-CoV-2 PLpro): 12 nM
- inhibition at […] ([27]; read-out: SARS-CoV-2 PLpro, UbRh dose-response): 95.1% and 83.6%
- chromatographic logD [28]: 3.8
- Ext Data Fig 6e dose response, normalised (0 µM = 100) ([29]; 0.01 µM): 105.19 and 94.34 and 104.76 and 91.8 and 114.493 and 94.2029
- Ext Data Fig 6e dose response, normalised (0 µM = 100) ([29]; 0.02 µM): 94.81 and 103.77 and 95.24 and 103.28 and 113.043 and 95.6522
- Ext Data Fig 6e dose response, normalised (0 µM = 100) ([29]; 0.04 µM): 90.91 and 75.47 and 93.65 and 80.33 and 105.797 and 88.4058
- Ext Data Fig 6e dose response, normalised (0 µM = 100) ([29]; 0.08 µM): 79.22 and 86.79 and 63.49 and 63.93 and 86.9565 and 85.5072
- Ext Data Fig 6e dose response, normalised (0 µM = 100) ([29]; 5 µM): 0
- EC50 ([29]; Severe acute respiratory syndrome coronavirus 2, Vero, 144 h, read-out: EC50 Replicate 1): 465 nM
- EC50 ([29]; Severe acute respiratory syndrome coronavirus 2, Vero, 144 h, read-out: EC50 Replicate 2): 333 nM
- EC50 ([29]; Severe acute respiratory syndrome coronavirus 2, Vero, 144 h, read-out: EC50 Replicate 3): 273 nM
- EC50 ([29]; Severe acute respiratory syndrome coronavirus 2, Vero, read-out: Antiviral EC50 (plaque assay)): 360 nM
- EC50 ([29]; Severe acute respiratory syndrome coronavirus 2, Vero, read-out: Antiviral EC50 (plaque assay) with Pgp inhibitor): 290 nM
- EC50 ([29]; read-out: EC50 Replicate 1): 376 nM
- EC50 ([29]; read-out: EC50 Replicate 2): 237 nM
- EC50 ([29]; read-out: EC50 Replicate 3): 253 nM
- IC50 [30]: > 20000 nM
- IC50 [31]: > 20000 nM
- AUC(0-inf) [32]: ~108 µM·h
- AUC(0-t) [32]: 72.3 µM·h
- Cmax [32]: 7.07 µM
- Tmax [32]: 1 h
- half-life ([32]; Apparent t1/2): 14 h
